# Key:
# Format in all cases: cell-based
# [1] = tested on: P. Parvum; assay: Oil secretion in P. Parvum cultures after glyburide (surface sheen, TLC of supernatant extract)
# Procedure: A control culture of P. Parvum was grown and split into two 500 mL cultures. Glyburide was added to one of the cultures and the culture was shaken for 24 h.
# A 1 L P. parvum culture (˜2 million cells/mL) treated with oxamate was split into two subcultures of 400 mL each. Glyburide dissolved in DMSO was added to one subculture. The other subculture received the DMSO carrier (control) that the glyburide had been dissolved in. The two cultures were incubated on the shaker for 24 h and subsequently off the shaker for ˜2 h.
# The cells were then pelleted and a 200 mL sample of the culture supernatant was removed from each culture. Each of the removed samples was briefly extracted with nonpolar solvent. The organic extracts were then dried down and the remainder was resuspended in an equal volume of solvent. An equal volume of each (as well as pure TAG as a standard) was loaded on a TLC plate. A chromatogram was developed and stained with iodine vapors. […] Both subcultures had similar amounts of phospholipids (PL). This is likely due to the presence of dead cell membranes in the supernatant extract. Both test samples also had either some monoglycerides (MG) or more likely, the pigment fucoxanthin.
# [2] = tested on: algal cells; assay: Nile Red fluorescence in growth medium after glyburide; conditions: following treatment with glyburide
# [3] = tested on: KAS603, a Chlorella sp.; assay: Culture growth: dry weight density and chlorophyll a during compound treatment; conditions: four 80 L cultures during the treatment period
# Procedure: Algal growth: KAS603, a Chlorella sp. was scaled in F/2 growth medium to ˜300 L in a vertical air lift bioreactor under 12/12 artificial illumination. Growth of the culture was monitored for density, chlorophyll accumulation, and for the presence of invasive species. Growth kinetics were typical and observation of invasive species was limited (sparse bacteria) and typical. The algae were grown under nutrient rich and light limiting conditions. […] Dry Weight Analysis: 10 ml of control and treated culture samples were pelleted via centrifugation at 3000 rpm for 5 minutes. The pellet was washed 1× with dH2O to remove salts. Following a second centrifugation step, the pellet was transferred to a pre-weighed aluminum dish and dried to a constant weight at 26.5° C. Cellular Growth/Density: Cellular growth and density can be characterized by the concentration of chlorophyll a in a sample. Chlorophyll a absorbs light at 435 nm and 680 nm, which can be accurately measured spectrophotometrically. Prior to the dry weight analysis, 10 ml samples were analyzed for absorbance at 435 nm and 680 nm. Based on the established chlorophyll a standard curve, chlorophyll a was calculated and reported as “mg chlorophyll a”.
# [4] = tested on: KAS603, a Chlorella sp.; assay: Recovery and measurement of extracellular lipids (hexane sweep, weight, HPLC, TLC) after glyburide treatment; conditions: for Weights of oil recovered from outside cells following glyburide treatment: from 1 L of culture
# Procedure: Glyburide Dosing: After 48 hours, the sodium oxamate time course was complete. A 1 L sample of each culture was collected and treated to recover oil outside the cells (if any) at t=0. The three cultures that had previously been treated with sodium oxamate were subsequently treated with 0.05 mM glyburide. Extracellular lipids in 1 L aliquots of the cultures were collected at 4 hours and 24 hours after the addition of glyburide by hexane sweep; dry cell weights were also calculated on separate aliquots of the culture. Oils recovered were analyzed via TLC and HPLC.
# (§1) Algal growth: KAS603, a Chlorella sp. was scaled in F/2 growth medium to ˜300 L in a vertical air lift bioreactor under 12/12 artificial illumination. Growth of the culture was monitored for density, chlorophyll accumulation, and for the presence of invasive species. Growth kinetics were typical and observation of invasive species was limited (sparse bacteria) and typical. The algae were grown under nutrient rich and light limiting conditions.
# (§2) Lipid Analyses: TLC—Dried extracts were resuspended in 100 μl of CHCl3. 2.5 μl of each sample was spotted onto silica gel matrix TLC plates (Sigma #2599) and resolved with hexane:diethyl ether:acetic acid (80:20:1). Carotenoids such as β-carotene were visible as yellow bands on the plate, while chlorophyll and chlorophyll breakdown products were visible as green or green/gray bands, respectively. Lipids other than carotenoids and chlorophyll were visualized with iodine vapors. The extracted samples were compared to commercially available lipid standards consisting of 1 μg/μl each of glyceryl trioleate (TAG), 1,3-Diolein (1,3 DAG), 1,2-dioleoyl-rac-glycerol (1,2 DAG), monoolein (MAG), and oleic acid (FFA).
# Recovery and Measurement of Extracellular Lipids: Cells that were exposed to the secretion compound glyburide were swept briefly with hexane at room temperature. 50 ml of hexane was added to 1 L samples from each study group, then mixed thoroughly, but gently, by inversion. The cells were re-centrifuged and the hexane layer containing the recovered lipids was transferred to a pre-weighed vial. The hexane was evaporated and the dried lipids were re-weighed. The dried lipids were subsequently analyzed by TLC or HPLC/MS as described.
# [5] = tested on: Schizochytrium sp.; assay: Nile Red fluorescence within cells after sodium oxamate; conditions: range of sodium oxamate concentrations
# [6] = tested on: P. Parvum; assay: Growth curves of oxamate treated algae (spike-in); conditions: small-scale cultures, oxamate added every three days, vs growth medium only
# Procedure: Small-scale […] P. Parvum cultures were grown and treated with oxamate. Four (A-D in FIG. 13) of the small scale cultures were treated with oxamate stock in growth medium, added every three days, corresponding to the points on the curve. Two (E-F in FIG. 13) of the cultures had only growth medium added.
# [7] = tested on: KAS603, a Chlorella sp.; assay: Total lipid extraction with HPLC/TLC lipid profile after sodium oxamate treatment
# Procedure: Sodium Oxamate Dosing: Sodium oxamate was added to three of the four cultures (see FIG. 1). A 1 L sample was collected at time 0, 24 and 48 hours for each culture (a total of 4 samples per time point). The algal cells were pelleted and oils extracted at each time point. Quantitative oil profiles of extracted lipids were generated by TLC and HPLC.
# as §1
# Total lipid extraction: 1 L samples were pelleted via centrifugation at 3000 rpm for 5 min. The pellets were resuspended in 10 ml of methanol and incubated at 65° C. for 1 h. The methanol was replaced with chloroform and incubated at 50° C. for 10 min. The chloroform was replaced with hexane and incubated at 50° C. for an additional 10 min. The extracts were pooled and distilled. The weights of the dried extracts were recorded prior to resuspension in 100 μl chloroform for TLC analysis, or in 2:1 chloroform:methanol (v/v) to a final concentration of ˜10 mg/mL and loaded for HPLC analysis (Surveyor LC Pump and Autosampler Plus, Thermo Finnegan). A splitter (Analytical Scientific Instruments) was employed to divide the sample 1:20 between a quadrapole MS (Thermo Finnegan MSQ Plus) and an ELSD (Sedere Sedex 75), respectively.
# as §2
# [8] = tested on: Chlorella sp.; assay: Nile Red fluorescence within cells after sodium oxamate; conditions: range of sodium oxamate concentrations
# [9] = tested on: P. Parvum; assay: as above; conditions: range of sodium oxamate concentrations
compound,measurement,setting,value
COc1ccc(Cl)cc1C(=O)NCCc1ccc(S(=O)(=O)NC(=O)NC2CCCCC2)cc1 [glyburide],oily sheen on the culture surface,"[1]; 500 mL culture, glyburide 24 h, no oxamate, vs control culture",much more prevalent
same,"lipid (TAG) in culture supernatant extract, TLC",[1]; glyburide/oxamate-treated subculture vs DMSO control on oxamate,"increase the production and/or secretion of lipid, specifically triacylglyceride (TAG)"
same,swirls of secreted oil on the culture surface,"[1]; oxamate treated culture, 400 mL subculture, glyburide in DMSO 24 h, control had very few swirls",a number of swirls on the surface
same,Nile Red fluorescence in the growth medium environment,[2],an increase in Nile Red fluorescence
same,effect of compound treatment on culture growth,[3],no evidence that compound treatment slowed growth
same,β-carotene and chlorophyll outside the cells (HPLC),[4]; 0.05 mM glyburide for 24 hrs,neither β-carotene nor chlorophyll were detected outside the cells
same,appearance of raw hexane extractions,"[4]; 0.05 mM glyburide, control group not coloured",visibly colored
same,external oil recovered by hexane sweep (in words),[4]; 4 hours after glyburide,no immediate increases in external oil
same,external oil recovered by hexane sweep (in words),[4]; 24 hours after glyburide exposure,significantly larger quantities of oil were recovered
same,Weights of oil recovered from outside cells following glyburide treatment,"[4]; T = 0 (at glyburide addition), cultures pre-treated 48 h with 0.3 mM sodium oxamate, listed as GLB1",0.0003 g
same,Weights of oil recovered from outside cells following glyburide treatment,"[4]; T = 0 (at glyburide addition), cultures pre-treated 48 h with 0.3 mM sodium oxamate, listed as GLB2",0.0002 g
same,Weights of oil recovered from outside cells following glyburide treatment,"[4]; T = 0 (at glyburide addition), cultures pre-treated 48 h with 0.3 mM sodium oxamate, listed as GLB3",0.0003 g
same,Weights of oil recovered from outside cells following glyburide treatment,"[4]; T = 4 hours after 0.05 mM glyburide, oxamate pre-treated cultures, listed as GLB1",0.0002 g
same,Weights of oil recovered from outside cells following glyburide treatment,"[4]; T = 4 hours after 0.05 mM glyburide, oxamate pre-treated cultures, listed as GLB2",0.0004 g
same,Weights of oil recovered from outside cells following glyburide treatment,"[4]; T = 4 hours after 0.05 mM glyburide, oxamate pre-treated cultures, listed as GLB3",0.0004 g
same,Weights of oil recovered from outside cells following glyburide treatment,"[4]; T = 24 hours after 0.05 mM glyburide, oxamate pre-treated cultures, listed as GLB1",0.0016 g
same,Weights of oil recovered from outside cells following glyburide treatment,"[4]; T = 24 hours after 0.05 mM glyburide, oxamate pre-treated cultures, listed as GLB2",0.0014 g
same,Weights of oil recovered from outside cells following glyburide treatment,"[4]; T = 24 hours after 0.05 mM glyburide, oxamate pre-treated cultures, listed as GLB3",0.0013 g
same,"quantity of lipid species of intermediate polarity (between FFA and 1,3DG) in extracellular lipids, TLC",[4]; glyburide treated groups vs control,significantly increased
same,external hydrocarbon (HPLC),"[4]; glyburide treated vs untreated, 24 h",An increase in external hydrocarbon
NC(=O)C(=O)[O-].[Na+] [sodium oxamate],Nile Red fluorescence within cells,[5],increases in Nile Red fluorescence
same,cell concentrations achieved,[6],higher cell concentrations than did the controls
same,onset of culture decline,[6],began to decline sooner than the controls
same,uncharacterized polar lipids (HPLC),[7]; 0.3 mM sodium oxamate at 48 h vs untreated control at time 0,increases in uncharacterized polar lipids
same,chlorophyll and total lipids in total extracts (HPLC),"[7]; 0.3 mM sodium oxamate, treated versus untreated groups",increases in chlorophyll and total lipids were detected
same,TAG accumulation in oil extracts,"[7]; 0.3 mM sodium oxamate, up to 48 h",Significant TAG accumulation was not found
same,"quantity of ""other"" lipid species",[7]; oxamate treated cultures vs untreated,trended higher
same,undefined lipids (UN) in total extracts by TLC,[7]; oxamate treated vs untreated groups,did not differ between treated and untreated groups
same,"Hydrocarbon (HC) and β-carotene (BC) concentrations, TLC of total extracts",[7]; throughout the oxamate treatment phase,remained consistent
same,Nile Red fluorescence within cells,[8],increases in Nile Red fluorescence
same,effect of compound treatment on culture growth,[3],no evidence that compound treatment slowed growth
same,Nile Red fluorescence within cells,[9],increases in Nile Red fluorescence

# Reference: patent US10041096B2, “Methods and products for generating oils” (The Texas A&M University System, priority 2011, dated 2018)
